This note sets out measurements from PMC6701825, “Antiproliferative and Antimigratory Effects of a Novel YAP–TEAD Interaction Inhibitor Identified Using in Silico Molecular Docking” (Journal of Medicinal Chemistry, 2019).

The target of assay [1] is T1, binding of endogenous YAP protein to recombinant GST-TEAD1 (Homo sapiens, UniProt P28347).
T1 construct: human TEAD1 (corresponding to residues 194–411); made in house; host or cells: SoluBL21 Escherichia coli (GST-TEAD1); HEK293 lysate (endogenous YAP)
T1 sequence (P28347 209-426): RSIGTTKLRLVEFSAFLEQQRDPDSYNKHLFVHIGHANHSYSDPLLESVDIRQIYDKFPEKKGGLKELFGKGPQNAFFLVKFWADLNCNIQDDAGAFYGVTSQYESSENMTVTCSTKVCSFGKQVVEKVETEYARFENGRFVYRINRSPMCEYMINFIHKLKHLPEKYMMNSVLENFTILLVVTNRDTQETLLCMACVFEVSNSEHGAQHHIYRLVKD
Kind of assay: In vitro GST-TEAD1-YAP interaction (pull-down) assay. Particulars: 200 μM compound, HEK293 lysate, 18 h at 4 °C, Western blot. An excerpt: We next tested the ability of these four compounds to inhibit the binding of endogenous YAP protein present in HEK293 whole cell lysate to recombinant glutathione S-transferase (GST)–TEAD1 protein immobilized on glutathione resin beads. […] Inhibition of YAP binding to TEAD1 in the presence of CPD3 was further confirmed using co-immunoprecipitation assays using mammalian cell lysates prepared from HeLa expressing myc-TEAD1 and GFP–YAP. […] We next set up a 96-well plate-based YAP–TEAD interaction assay to determine the IC50 of the inhibition of the YAP–TEAD complex by CPD3.
The DNA fragment encoding human TEAD1 (corresponding to residues 194–411) was amplified by polymerase chain reaction (PCR) and cloned into the BamH1 and EcoR1 sites of vector pGEX-6P1, in frame with the terminal GST tag. GST–TEAD1 fusion protein expression was induced in SoluBL21s Escherichia coli by culture at 25 °C in the presence of 0.2 mM IPTG for 18 h. […] Bound proteins were eluted by boiling in Laemmli sample buffer and YAP and GST–TEAD levels quantified by Western blotting with an anti-YAP antibody (Cell Signaling; #4912) and an anti-GST antibody (Cell Signaling; #5475S).

A further assay has as its system HuVSMC. Kind of assay: Real-time IncuCyte scratch wound migration assay in HuVSMC. Particulars: HuVSMC, 0.25, 0.5, 2, and 10 μM. Type of assay: cell-based, human. The procedure: Figure 9 Compound 3.1 inhibits TEAD target gene expression, cell proliferation, and cell migration in RaVSMCs. RaVSMCs stably transduced with TEAD-NLUC (A) or transiently transfected with CCN1-LUC or CTGF-LUC were treated with the indicated concentrations of compound 3.1 for 6 hr. Cell conditioned media (A) or cell lysates (B−C) were assayed for nanoluciferase or fire-fly luciferase activity, respectively. VSMC were treated with 60 μM compound 3.1 for 6 h (n = 3). Total RNA was analyzed for mRNA levels of TEAD-target genes (D) or constitutive housekeeping genes (E) by qRT-PCR. VSMC were treated with indicated concentrations of compound 3.1 for 16 hr (n = 4). Total cell lysates were analyzed for CCN1 protein expression by Western blotting (F). RaVSMCs (G) or HuVSMC (H) were treated with indicated concentrations of compound 3.1 for 18 h followed by labeling in 10 μM EdU for a further 6 h (n = 4). RaVSMCs (I) or HuVSMC (J) were treated with indicated concentrations of compound 3.1 and cell migration quantified using IncuCyte real time migration assay (n = 4).
Cell proliferation was measured using the Click-iT EdU 488 assay (Sigma-Aldrich). […] Fluorescent images of at least three fields of view per well were counted using ImageJ software. […] Relative wound confluence was calculated using the Cell Migration Image analysis module of the IncuCyte ZOOM software.

As for `Cc1ccc2c(c1)c1c3n2CCN(CC(O)CN2CCN(C(=O)c4ccco4)CC2)C3CCC1` (centres unmarked) [CPD3], in assay [1], the “inhibition of binding of YAP protein to GST-TEAD1” value was “inhibit the binding of YAP protein”. In the case of `Cc1ccc2c(c1)c1c3n2CCNC3CCC1` (centres unmarked) [CPD3.1], the “cell migration (scratch wound)” value in the assay with HuVSMC is given as “inhibited in a dose-dependent manner”.
